Measurements reported in ChEMBL document CHEMBL5113468, “Design, synthesis, and biological evaluation of novel double-winged galloyl derivatives as HIV-1 RNase H inhibitors” (Eur J Med Chem, 2022).

Tests used:
[1] = target: Human immunodeficiency virus type 1 reverse transcriptase (Human immunodeficiency virus 1, UniProt Q72547); experiment: (§1) Inhibition of wild-type recombinant HIV-1 group M subtype B BH10 reverse transcriptase RNase-associated RNase H activity expressed in Escherichia coli XL1 blue using 32P-labeled 5'-UUUUUUUUUAGGAUACAUAUGGUUAAAGUAU-3'/5'-ATACTTTAACCATATGTATCC-3' RNA/DNA template-primer as substrate preincubated for 5 mins followed by substrate addition and measured after 15 mins by phosphorimaging analysis
[2] = test system: Human immunodeficiency virus 1; experiment: Antiviral activity against HIV1 3B infected in human MT4 cells assessed as protection against virus-induced cytopathic effect incubated for 5 days by MTT assay; format: functional, organism-based; details: Human immunodeficiency virus 1, 3B, MT4, 120 h
[3] = test system: Human immunodeficiency virus 2; experiment: Antiviral activity against HIV2 ROD infected in human MT4 cells assessed as protection against virus-induced cytopathic effect incubated for 5 days by MTT assay; format: functional, organism-based; details: Human immunodeficiency virus 2, ROD, MT4, 120 h
[4] = Cytotoxicity against human MT4 cells assessed as reduction in cell viability measured after 5 days by MTT assay; format: toxicity, cell-based; details: time 5 day
[5] = Apparent permeability across apical to basolateral side in human Caco-2 cells at 2 uM measured after 2 hrs by LC-MS/MS analysis; format: ADME, cell-based
[6] = target: Human immunodeficiency virus type 1 reverse transcriptase (Human immunodeficiency virus 1) (UniProt Q72547); experiment: as §1, with “blue at 100 uM” for “blue”, “5'-[…]-3'/5'-[…]-3'” for “5'-UUUUUUUUUAGGAUACAUAUGGUUAAAGUAU-3'/5'-ATACTTTAACCATATGTATCC-3'”, “analysis relative to control” for “analysis”; details: time 20.0 min
[7] = target: Human immunodeficiency virus type 1 reverse transcriptase (Human immunodeficiency virus 1) (UniProt Q72547); experiment: Potency index, ratio of beta-thujaplicinol IC50 to test compound IC50 for inhibition of wild-type recombinant HIV-1 group M subtype B BH10 reverse transcriptase RNase-associated RNase H activity expressed in Escherichia coli XL1 blue

Row | Compound | IC50 [1] | Papp A→B at 2 h, 2 µM [5] | inhibition [6] | Ratio IC50 [7] | EC50 [2] | EC50 [3] | CC50 at 120 h [4]
1 | COCCc1ccc(OCC(O)CNC(C)C)cc1 (centres undefined) [METOPROLOL] | – | < 0.48 ×10⁻⁶ cm/s | – | – | – | – | –
2 | N#Cc1ccc(S(=O)(=O)N2CCN(C(=O)c3cc(O)c(O)c(O)c3)C(C(=O)Nc3ccccc3)C2)cc1 (centres undefined) | > 20000 nM | – | 60.6% | – | > 130 µM | > 130 µM | 130 µM
3 | Nc1ccc(S(=O)(=O)N2CCN(C(=O)c3cc(O)c(O)c(O)c3)C(C(=O)NCc3ccc(-c4ccccc4)cc3)C2)cc1 (centres undefined) | > 100000 nM | – | 47.6% | – | > 207 µM | > 207 µM | 207 µM
4 | COc1ccc(CNC(=O)C2CN(S(=O)(=O)c3ccc(C#N)cc3)CCN2C(=O)c2cc(O)c(O)c(O)c2)cc1 (centres undefined) | > 10000 nM | – | 81.4% | – | > 21.4 µM | > 21.4 µM | 21.4 µM
5 | N#Cc1ccc(S(=O)(=O)N2CCN(C(=O)c3cc(O)c(O)c(O)c3)C(C(=O)NCc3ccc4ccccc4c3)C2)cc1 (centres undefined) | > 20000 nM | – | 71.9% | – | > 213 µM | > 213 µM | 213 µM
6 | N#Cc1ccc(S(=O)(=O)N2CCN(C(=O)c3cc(O)c(O)c(O)c3)C(C(=O)NCc3ccco3)C2)cc1 (centres undefined) | > 20000 nM | – | 57.1% | – | > 108 µM | > 108 µM | 108 µM
7 | Nc1ccc(S(=O)(=O)N2CCN(C(=O)c3cc(O)c(O)c(O)c3)CC2C(=O)NCc2cccs2)cc1 (centres undefined) | > 100000 nM | – | 39.6% | – | > 235 µM | > 235 µM | 235 µM
8 | Cc1ccnc2c1NC(=O)c1cccnc1N2C1CC1 [NEVIRAPINE] | – | – | – | – | 0.17 µM | – | > 15 µM
9 | Nc1ccc(S(=O)(=O)N2CCN(C(=O)c3cc(O)c(O)c(O)c3)C(C(=O)NCc3cccs3)C2)cc1 (centres undefined) | > 100000 nM | – | 45% | – | > 235 µM | > 167 µM | 167 µM
10 | Nc1ccn([C@@H]2CS[C@H](CO)O2)c(=O)n1 [LAMIVUDINE] | – | – | – | – | – | – | > 87.3 µM
11 | CC(C)c1ccc(O)c(=O)c(O)c1 [BETA-THUJAPLICINOL] | – | – | – | – | > 2.5 µM | > 2.5 µM | –

More lines, main results first:

Row | IC50 [1] | Papp A→B at 2 h, 2 µM [5] | inhibition [6] | Ratio IC50 [7] | Compound | EC50 [2] | EC50 [3] | CC50 at 120 h [4]
12 | 270 nM | – | – | – | COc1ccc(CNC(=O)C2CN(S(=O)(=O)c3ccc(N)cc3)CCN2C(=O)c2cc(O)c(O)c(O)c2)cc1 (centres undefined) | > 21.7 µM | > 21.7 µM | 21.7 µM
13 | 330 nM | – | – | – | Nc1ccc(S(=O)(=O)N2CCN(C(=O)c3cc(O)c(O)c(O)c3)C(C(=O)Nc3ccccc3)C2)cc1 (centres undefined) | > 50.8 µM | > 50.8 µM | 50.8 µM
14 | 180 nM | – | – | – | CC(C)(C)OC(=O)N1CCC2(CCN(C(=O)C3CN(C(=O)c4cc(O)c(O)c(O)c4)CCN3S(=O)(=O)c3ccc(N)cc3)C2)C1 (centres undefined) | > 42 µM | > 42 µM | 42 µM
15 | 720 nM | – | – | – | Nc1ccc(S(=O)(=O)N2CCN(C(=O)c3cc(O)c(O)c(O)c3)CC2)cc1 | > 18 µM | > 18 µM | 18 µM
16 | 310 nM | – | – | – | CN(C(=O)C1CN(S(=O)(=O)c2ccc(C#N)cc2)CCN1C(=O)c1cc(O)c(O)c(O)c1)c1ccccc1 (centres undefined) | > 113 µM | > 113 µM | 113 µM
17 | 220 nM | – | – | – | Nc1ccc(S(=O)(=O)N2CCN(C(=O)c3cc(O)c(O)c(O)c3)CC2C(=O)NCc2cccc3ccccc23)cc1 (centres undefined) | > 21.6 µM | > 21.6 µM | 21.6 µM
18 | 140 nM | – | – | – | COc1ccc(CNC(=O)C2CN(C(=O)c3cc(O)c(O)c(O)c3)CCN2S(=O)(=O)c2ccc(N)cc2)cc1 (centres undefined) | > 20.4 µM | > 20.4 µM | 20.4 µM
19 | 67 nM | 0.2 ×10⁻⁶ cm/s | – | 30 | Nc1ccc(S(=O)(=O)N2CCN(C(=O)c3cc(O)c(O)c(O)c3)C(C(=O)NCc3ccco3)C2)cc1 (centres undefined) | > 24.7 µM | > 24.7 µM | 24.7 µM
20 | 1780 nM | – | – | – | CN(C(=O)C1CN(C(=O)c2cc(O)c(O)c(O)c2)CCN1S(=O)(=O)c1ccc(N)cc1)c1ccccc1 (centres undefined) | > 135 µM | > 135 µM | 135 µM
21 | 990 nM | – | – | – | CN(C(=O)C1CN(S(=O)(=O)c2ccc(N)cc2)CCN1C(=O)c1cc(O)c(O)c(O)c1)c1ccccc1 (centres undefined) | > 237 µM | > 237 µM | 237 µM
22 | 410 nM | – | – | – | N#Cc1ccc(S(=O)(=O)N2CCN(C(=O)c3cc(O)c(O)c(O)c3)C(C(=O)NCc3ccc(-c4ccccc4)cc3)C2)cc1 (centres undefined) | > 7.9 µM | > 7.9 µM | 7.9 µM
23 | 560 nM | – | – | – | Nc1ccc(S(=O)(=O)N2CCN(C(=O)c3cc(O)c(O)c(O)c3)CC2C(=O)Nc2ccccc2)cc1 (centres undefined) | > 19.1 µM | > 19.1 µM | 19.1 µM
24 | 130 nM | – | – | – | Nc1ccc(S(=O)(=O)N2CCN(C(=O)c3cc(O)c(O)c(O)c3)CC2C(=O)NCc2ccco2)cc1 (centres undefined) | > 25.3 µM | > 25.3 µM | 25.3 µM
25 | 340 nM | – | – | – | Nc1ccc(S(=O)(=O)N2CCN(C(=O)c3cc(O)c(O)c(O)c3)CC2C(=O)NCc2ccc(-c3ccccc3)cc2)cc1 (centres undefined) | > 18.3 µM | > 18.3 µM | 18.3 µM
